Source: US20260035409A1, “BRINP2-DERIVED PEPTIDE COMPOSITIONS FOR TREATING OBESITY AND WEIGHT MANAGEMENT” (The Board of Trustees of the Leland Stanford Junior …, priority 2022, published 2026)
Ends that are not written are not given here.

Assays:
[1] = fasting blood glucose in lean C57BL/6 mice after I.P. injection (no food); format: in vivo; conditions: fasted, peptides 5 mg/kg or GLP-1 2 mg/kg I.P.
Procedure: (§1) We next performed in vivo studies to determine whether any of these peptides affected food intake or blood glucose levels—two biological consequences of cfos activation. For acute food intake studies, lean, 8-week-old C57BL/6 mice (N=3/group) were fasted for 16 hours prior to administration of vehicle (saline), GLP-1 at 2 mg/kg, or FGF3_4, EDIL3_4, BRNP2_5, SCG1_9, FSTL4_3, and FGF5_5 peptides at 5 mg/kg. The food intake was then monitored over 6 hours.
(§2) For acute experiments, after overnight fasting for 16 hours, 8-week-old C57BL/6 mice were weighed and I.P. injected with either saline, GLP-1 at 2 mg/kg or peptides at 5 mg/kg (N=3 mice per group). Fasted blood glucose and food intake was then monitored for 6 hours.

[2] = system: cfos expression in INS1 cells; test: cfos expression after 1 h peptide treatment, INS1 cells (qRT-PCR); format: cell-based, rat; conditions: GLP-1 30 μM
From the text: A feature of many known biologically active peptide hormones is the presence of an amidated C-terminus, which can be important for peptide bioactivity, as for gastrin-releasing peptide neuromedin-B, or for increased peptide stability, as for GLP-1. Therefore, the peptide library was constructed with an amide (NH2) group at the C-terminus as the only modification for comparative studies between peptides (FIG. 2a). In total, we generated a library of 100 peptides for functional biological screening. The peptide solubility was deduced according to its overall charge and reconstituted accordingly to optimal solubility. For all peptides, quality control by mass spectrometry was performed which validated the purity of the synthesized peptides for the primary screen according to their theoretical molecular weight (FIG. 8). Next, we functionally explored the potency of 100 of the peptides in activating cfos expression, a marker of cellular activity, after 1 hour of peptide treatment across two cell lines, Neuroscreen-1, NS-1 (rat neuronal origin) and INS1 cells (rat pancreatic origin) (FIG. 2b). […]
RNA expression analysis. […] Relative mRNA expression was determined by normalization with Ribosomalprotein S18 (Rsp18) levels using the ΔΔCt method. […]

[3] = metabolic cages (Columbus comprehensive lab animal monitoring system) after single injection; format: in vivo, mice
Procedure: To study the metabolic effects in more detail, we next used metabolic cages performed with a Columbus comprehensive lab animal monitoring system. C57BL6/J mice were acclimated to the cages and randomized into two groups, followed by an I.P. injection with either vehicle (saline) or 5 mg/kg BRP (N=4/group).
Food intake, energy expenditure and body composition measurements. Measurements of accumulated food intake and VO2 were performed using a Comprehensive Lab Animal Monitoring System at room temperature (20-22° C.) (Oxymax, Columbus Instruments) as previously described. Singly housed mice were acclimated in metabolic cages for at least 24 h before the start of experiment to minimize stress.

[4] = system: cfos expression in NS-1 cells; test: cfos expression after 1 h peptide treatment, NS-1 cells (qRT-PCR); format: cell-based, rat; conditions: for cfos activation, alanine substitutions in the BRP sequence: 100 μg/kg, fully active = >15-fold over vehicle
From the text: A feature of many known biologically active peptide hormones is the presence of an amidated C-terminus, which can be important for peptide bioactivity, as for gastrin-releasing peptide neuromedin-B, or for increased peptide stability, as for GLP-1. Therefore, the peptide library was constructed with an amide (NH2) group at the C-terminus as the only modification for comparative studies between peptides (FIG. 2a). In total, we generated a library of 100 peptides for functional biological screening. The peptide solubility was deduced according to its overall charge and reconstituted accordingly to optimal solubility. For all peptides, quality control by mass spectrometry was performed which validated the purity of the synthesized peptides for the primary screen according to their theoretical molecular weight (FIG. 8). Next, we functionally explored the potency of 100 of the peptides in activating cfos expression, a marker of cellular activity, after 1 hour of peptide treatment across two cell lines, Neuroscreen-1, NS-1 (rat neuronal origin) and INS1 cells (rat pancreatic origin) (FIG. 2b). Glucagon-like peptide 1 (GLP-1^7-37), a 30-mer peptide ligand for the glucagon receptor family of G protein-coupled receptors in pancreatic 3-cells, was used as a positive control at 30 μM in INS1 cells. NGF (Nerve Growth Factor) was used as a positive control at 2 nM in NS-1 cells. Expectedly, we find that GLP-1^7-37 induces a ˜4-fold elevation of cfos expression in INS1 cells and NGF induces a ˜10-fold induction of cfos expression in NS-1 cells (FIG. 2b). Across the 100 tested peptides, 6 peptides, FGF34, EDIL3_4, BRNP2_5, SCG1_9, FSTL4_3, and FGF5_5 induced more than a >5-fold cfos expression across both cell lines compared with vehicle.
Cell culture. NS-1 rat neuronal cell line was cultured with RPMI 1640 medium (Gibco) supplemented with 10% FBS and 1% L-glutamine. INS-1 832/13 rat insulinoma cell line (#SCC207) was cultured with RPMI 1640 medium (Gibco) supplemented with 10% FBS, 1% L-glutamine, 10 mM HEPES, 1 mM NaPyruvate and 50 μM β-mercaptoethanol. For peptide activity assay, 3×10^5 NS-1 and INS1 cells were plated in 12 well-plates. The next day, cells were washed twice with warm PBS and starved in serum-free RPMI overnight. Indicated concentrations of NGF (2 nM) or GLP-1 (30 μM) or peptides (100 μg/ml) were added and incubated for 1 hr at 37° C. Cells were washed with PBS and RNA was isolated for cfos expression analysis.
RNA expression analysis. Total RNA was isolated using TRIzol (Thermo Fischer Scientific) and Rneasy mini kits (QIAGEN). RNA was reverse transcribed using the ABI high-capacity cDNA synthesis kit. For qRT-PCR analysis, cDNA, primers and SYBR-green fluorescent dye (ABI) was used. Relative mRNA expression was determined by normalization with Ribosomalprotein S18 (Rsp18) levels using the ΔΔCt method. The primer sequences used are […] and […] for Rsp18 and […] and […] for cfos.

[5] = acute food intake in fasted lean C57BL/6 mice after I.P. injection; format: in vivo; conditions: 5 mg/kg I.P., up to 6 hours
Procedure: as §1
Mouse studies. Animal experiments were performed per procedures approved by the Institutional Animal Care and Use Committee of the Stanford Animal Care and Use Committee (APLAC) protocol number #32982. C57BL/6J male mice were purchased from the Jackson Laboratory (#000664) and were used after 1 week of acclimatization after import into the facility. Unless otherwise stated, all mice were in good health and housed in a temperature-controlled (20-22° C.) room on a 12-hour light/dark cycle with ad lib access to food and water.
as §2

[6] = open-field assay 30 min after single injection; format: in vivo, mice; conditions: 5 mg/kg I.P., 30 min post-injection
Procedure: Open field assay. 8-week-old C57BL/6 mice were transferred to the open-field facility and housed for 7 days for habituation before the test. Mice were weighed and then I.P. injected with either saline or BRP peptide at 5 mg/kg (N=15 mice per group, […] solution diluted in saline, total injection volume 100 ul per mouse). 30 min post-injection, the open-field test was performed in an Open Field Activity Arena (Med Associates Inc., St. Albans, VT. Model ENV-515) mounted with three planes of infrared detectors and within a specially designed sound-attenuating chamber (Med Associates Inc., St. Albans, VT. MED-017M-027). The arena was 43 cm (L)×43 cm (W)×30 cm (H), and the sound-attenuating chamber was 74 cm (L)×60 cm (W)×60 cm (H). Each mouse was placed in the corner of the testing arena and allowed to explore the arena for 10 minutes while being tracked by an automated tracking system. Data was analyzed using software Activity Monitor Version 7.8. Parameters analyzed include distance moved and time spent in the periphery and center of the arena. The periphery was defined as the zone 5 cm away from the arena wall.

Row | Substance | food intake, alanine substitutions compared with BRP [5] | cfos activation, alanine substitutions in the BRP sequence [4] | other results
1 | GLP-1: 30-mer peptide ligand for the glucagon receptor family of GPCRs, positive control |  |  | blood glucose [1]: lowered blood glucose; elevation of cfos expression (positive control) [2]: ~4 fold; energy expenditure ([3]; single injection GLP-1 2 mg/kg): without affecting; food intake (metabolic cages) ([3]; single injection GLP-1 2 mg/kg): acutely suppresses; locomotor activity ([3]; single injection GLP-1 2 mg/kg): without affecting; meal size ([3]; single injection GLP-1 2 mg/kg): acutely suppresses
2 | NGF: Nerve Growth Factor, positive control in NS-1 cells [reference compound] |  |  | induction of cfos expression (positive control) ([4]; NGF 2 nM): ~10 fold
3 | THAILRRLFNLC [Ala substitution on residue 3] | reduced efficacy in lowering food intake | important to retain full activity | 
4 | THRALRRLFNLC [Ala substitution on residue 4] | reduced efficacy in lowering food intake |  | 
5 | THRIARRLFNLC [Ala substitution on residue 5] | reduced efficacy in lowering food intake |  | 
6 | THRILARLFNLC [Ala substitution on residue 6] | reduced efficacy in lowering food intake |  | 
7 | THRILRALFNLC [Ala substitution on residue 7] | improves the appetite-suppressing effect of BRP |  | 
8 | THRILRRAFNLC [Ala substitution on residue 8] | reduced efficacy in lowering food intake | important to retain full activity | 
9 | THRILRRLFALC [Ala substitution on residue 10] |  | important to retain full activity | 
10 | THRILRRLFNLA [Ala substitution on residue 12] | reduced efficacy in lowering food intake | important to retain full activity | 
11 | THRILRRLFNLC (listed as Homo sapiens) [non-amidated BRP] |  |  | cfos activity in words ([4]; 100 μg/ml): no activity
12 | THRILRRLFNLC-NH2 [BRP, THRILRRLFNLC] |  |  | anxiety-like behavior (open field) [6]: does not affect anxiety-like behavior; ambulatory activity ([3]; single I.P. injection 5 mg/kg): does not alter
